# Columns and labels:
# Assay in all cases: relative viability (nuclei count vs DMSO), 5 days (fraction); higher = more cells survive
# NCI-H1734 = test system: NCI-H1734
# Outline: (§1)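 Values are medians from duplicate plates. Each reflects relative viability, defined as the nuclei count of treated wells over that of vehicle wells. Lung cancer cell lines in 1536-well plates were pin-tool dosed one day after seeding with one drug alone or with a fixed anchor-drug dose plus five library-drug doses (not always all listed) in √10 steps, then fixed, stained and imaged at 4× after 5 days.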
# RERF-LC-KJ = test system: RERF-LC-KJ
# Outline: as §1
# NCI-H1975 = test system: NCI-H1975
# Outline: as §1
# LCLC-97TM1 = test system: LCLC-97TM1
# Outline: as §1
# PC-3 [JPC-3] = test system: PC-3 [JPC-3]
# Outline: as §1
# NCI-H322M = test system: NCI-H322M
# Outline: as §1
# NCI-H1650 = test system: NCI-H1650
# Outline: as §1
# CAL-12T = test system: CAL-12T
# Outline: as §1
# PC-14 = test system: PC-14
# Outline: as §1
# HCC-827 = test system: HCC-827
# Outline: as §1
# LK-2 = test system: LK-2
# Outline: as §1
# NCI-H520 = test system: NCI-H520
# Outline: as §1
# NCI-H2342 = test system: NCI-H2342
# Outline: as §1
# NCI-H1755 = test system: NCI-H1755
# Outline: as §1
# HCC-15 = test system: HCC-15
# Outline: as §1
# NCI-H1355 = test system: NCI-H1355
# Outline: as §1
# EKVX = test system: EKVX
# Outline: as §1
# H3255 = test system: H3255
# Outline: as §1
# NCI-H661 = test system: NCI-H661
# Outline: as §1
# NCI-H2405 = test system: NCI-H2405
# Outline: as §1
# NCI-H2228 = test system: NCI-H2228
# Outline: as §1
smiles,measurement,setting,value
COc1cc2nccc(Oc3ccc(NC(=O)Nc4cc(C)on4)c(Cl)c3)c2cc1OC [Tivozanib] + CC(=O)c1c(C)c2cnc(Nc3ccc(N4CCNCC4)cn3)nc2n(C2CCCC2)c1=O [Palbociclib] (partner 0.5 µM),relative viability,NCI-H1734; first compound 0.005 µM,0.313
same,relative viability,NCI-H1734; first compound 0.01581 µM,0.34
same,relative viability,NCI-H1734; first compound 0.05 µM,0.335
same,relative viability,NCI-H1734; first compound 0.1581 µM,0.336
same,relative viability,NCI-H1734; first compound 0.5 µM,0.345
same,relative viability,RERF-LC-KJ; first compound 0.005 µM,1.01
same,relative viability,RERF-LC-KJ; first compound 0.01581 µM,1.05
same,relative viability,RERF-LC-KJ; first compound 0.05 µM,1.11
same,relative viability,RERF-LC-KJ; first compound 0.1581 µM,1.08
same,relative viability,RERF-LC-KJ; first compound 0.5 µM,1.04
same,relative viability,NCI-H1975; first compound 0.005 µM,0.585
same,relative viability,NCI-H1975; first compound 0.01581 µM,0.609
same,relative viability,NCI-H1975; first compound 0.05 µM,0.648
same,relative viability,NCI-H1975; first compound 0.1581 µM,0.341
same,relative viability,NCI-H1975; first compound 0.5 µM,0.509
same,relative viability,LCLC-97TM1; first compound 0.005 µM,0.233
same,relative viability,LCLC-97TM1; first compound 0.01581 µM,0.245
same,relative viability,LCLC-97TM1; first compound 0.05 µM,0.193
same,relative viability,LCLC-97TM1; first compound 0.1581 µM,0.268
same,relative viability,LCLC-97TM1; first compound 0.5 µM,0.214
same,relative viability,PC-3 [JPC-3]; first compound 0.01581 µM,0.55
same,relative viability,PC-3 [JPC-3]; first compound 0.05 µM,0.554
same,relative viability,PC-3 [JPC-3]; first compound 0.1581 µM,0.609
same,relative viability,PC-3 [JPC-3]; first compound 0.5 µM,0.55
same,relative viability,NCI-H322M; first compound 0.005 µM,0.467
same,relative viability,NCI-H322M; first compound 0.01581 µM,0.478
same,relative viability,NCI-H322M; first compound 0.05 µM,0.522
same,relative viability,NCI-H322M; first compound 0.1581 µM,0.538
same,relative viability,NCI-H322M; first compound 0.5 µM,0.513
same,relative viability,NCI-H1650; first compound 0.005 µM,0.328
same,relative viability,NCI-H1650; first compound 0.01581 µM,0.304
same,relative viability,NCI-H1650; first compound 0.05 µM,0.336
same,relative viability,NCI-H1650; first compound 0.1581 µM,0.389
same,relative viability,NCI-H1650; first compound 0.5 µM,0.319
same,relative viability,CAL-12T; first compound 0.005 µM,0.407
same,relative viability,CAL-12T; first compound 0.01581 µM,0.433
same,relative viability,CAL-12T; first compound 0.05 µM,0.465
same,relative viability,CAL-12T; first compound 0.1581 µM,0.224
same,relative viability,CAL-12T; first compound 0.5 µM,0.402
same,relative viability,PC-14; first compound 0.005 µM,0.528
same,relative viability,PC-14; first compound 0.01581 µM,0.538
same,relative viability,PC-14; first compound 0.05 µM,0.549
same,relative viability,PC-14; first compound 0.1581 µM,0.54
same,relative viability,PC-14; first compound 0.5 µM,0.394
same,relative viability,HCC-827; first compound 0.005 µM,0.498
same,relative viability,HCC-827; first compound 0.01581 µM,0.506
same,relative viability,HCC-827; first compound 0.05 µM,0.539
same,relative viability,HCC-827; first compound 0.1581 µM,0.448
same,relative viability,HCC-827; first compound 0.5 µM,0.412
same,relative viability,LK-2; first compound 0.005 µM,0.664
same,relative viability,LK-2; first compound 0.01581 µM,0.674
same,relative viability,LK-2; first compound 0.05 µM,0.503
same,relative viability,LK-2; first compound 0.1581 µM,0.875
same,relative viability,LK-2; first compound 0.5 µM,0.742
same,relative viability,NCI-H520; first compound 0.005 µM,0.231
same,relative viability,NCI-H520; first compound 0.01581 µM,0.296
same,relative viability,NCI-H520; first compound 0.05 µM,0.238
same,relative viability,NCI-H520; first compound 0.1581 µM,0.19
same,relative viability,NCI-H520; first compound 0.5 µM,0.231
same,relative viability,NCI-H2342; first compound 0.005 µM,0.495
same,relative viability,NCI-H2342; first compound 0.01581 µM,0.524
same,relative viability,NCI-H2342; first compound 0.05 µM,0.536
same,relative viability,NCI-H2342; first compound 0.5 µM,0.469
same,relative viability,NCI-H1755; first compound 0.005 µM,0.437
same,relative viability,NCI-H1755; first compound 0.01581 µM,0.467
same,relative viability,NCI-H1755; first compound 0.05 µM,0.442
same,relative viability,NCI-H1755; first compound 0.1581 µM,0.421
same,relative viability,NCI-H1755; first compound 0.5 µM,0.403
same,relative viability,HCC-15; first compound 0.005 µM,0.689
same,relative viability,HCC-15; first compound 0.01581 µM,0.768
same,relative viability,HCC-15; first compound 0.05 µM,0.767
same,relative viability,HCC-15; first compound 0.1581 µM,0.734
same,relative viability,HCC-15; first compound 0.5 µM,0.672
same,relative viability,NCI-H1355; first compound 0.005 µM,0.401
same,relative viability,NCI-H1355; first compound 0.01581 µM,0.447
same,relative viability,NCI-H1355; first compound 0.05 µM,0.445
same,relative viability,NCI-H1355; first compound 0.1581 µM,0.326
same,relative viability,NCI-H1355; first compound 0.5 µM,0.417
same,relative viability,EKVX; first compound 0.005 µM,0.37
same,relative viability,EKVX; first compound 0.01581 µM,0.455
same,relative viability,EKVX; first compound 0.05 µM,0.449
same,relative viability,EKVX; first compound 0.1581 µM,0.291
same,relative viability,EKVX; first compound 0.5 µM,0.407
same,relative viability,H3255; first compound 0.005 µM,0.313
same,relative viability,H3255; first compound 0.01581 µM,0.356
same,relative viability,H3255; first compound 0.05 µM,0.294
same,relative viability,H3255; first compound 0.1581 µM,0.334
same,relative viability,H3255; first compound 0.5 µM,0.328
same,relative viability,NCI-H661; first compound 0.005 µM,0.401
same,relative viability,NCI-H661; first compound 0.01581 µM,0.387
same,relative viability,NCI-H661; first compound 0.05 µM,0.422
same,relative viability,NCI-H661; first compound 0.1581 µM,0.409
same,relative viability,NCI-H661; first compound 0.5 µM,0.387
same,relative viability,NCI-H2405; first compound 0.005 µM,0.534
same,relative viability,NCI-H2405; first compound 0.01581 µM,0.55
same,relative viability,NCI-H2405; first compound 0.05 µM,0.528
same,relative viability,NCI-H2405; first compound 0.1581 µM,0.527
same,relative viability,NCI-H2405; first compound 0.5 µM,0.466
same,relative viability,NCI-H2228; first compound 0.005 µM,0.688
same,relative viability,NCI-H2228; first compound 0.01581 µM,0.68
same,relative viability,NCI-H2228; first compound 0.05 µM,0.883
same,relative viability,NCI-H2228; first compound 0.1581 µM,0.321
same,relative viability,NCI-H2228; first compound 0.5 µM,0.643

# Reference: the supplement of paper PMC10307832
